Reference: patent US7531671B2, “Dihydroisoindolones as allosteric modulators of glucokinase” (Janssen Pharmaceutica N.V., priority 2005, dated 2009)
Several values for one entry are separate records, joined by “and”; a condition that tells them apart may be missing. Identical values can stand only once.

Molecular target: T1, human liver Glucokinase (GK) (Homo sapiens, UniProt P35557)
T1 construct: (His)6; made in house; host or cells: Escherichia coli
T1 sequence (P35557 1-466 isoform P35557-2): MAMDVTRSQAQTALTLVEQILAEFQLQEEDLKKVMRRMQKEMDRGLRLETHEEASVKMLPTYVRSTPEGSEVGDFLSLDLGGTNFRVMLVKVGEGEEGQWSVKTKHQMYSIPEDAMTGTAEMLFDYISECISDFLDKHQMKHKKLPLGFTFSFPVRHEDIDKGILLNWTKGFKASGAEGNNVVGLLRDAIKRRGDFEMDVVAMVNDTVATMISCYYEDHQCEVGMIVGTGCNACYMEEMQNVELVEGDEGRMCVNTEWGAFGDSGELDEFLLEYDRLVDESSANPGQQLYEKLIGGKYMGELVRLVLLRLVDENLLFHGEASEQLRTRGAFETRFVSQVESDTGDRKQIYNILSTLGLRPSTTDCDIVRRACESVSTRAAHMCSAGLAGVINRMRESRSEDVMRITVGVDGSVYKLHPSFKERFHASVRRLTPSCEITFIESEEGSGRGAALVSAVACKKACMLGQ
Test: Glucokinase enzyme assay, Liver GK data
Format: biochemical
Conditions: for EC50: concentration producing 50% activation above vehicle control; for EC100%: concentration producing 100% activation above vehicle control
Source text: An enzymatic Glucokinase (GK) assay using purified recombinant human liver/pancreas enzyme was used to evaluate the effects of potential small molecule modulators.
In this assay, GK catalyzes glucose phosphorylation in the presence of ATP. The product of this reaction, glucose-6-phosphate, was then oxidized by an excess of glucose-6-phosphate dehydrogenase to produce gluconate-6-phosphate with concomitant reduction of nicotinamide adenine dinucleotide (NAD). […] Human GK (Liver/Pancreas) was expressed in Escherichia coli as a (His) 6-tagged fusion protein and was purified by metal chelate affinity chromatography. The assay was performed in a final incubation volume of 80 μl in a 96-well clear low UV absorption plates. The incubation mixture consisted of 25 mM HEPES, 2 mM MgSO4, 1 mM dithiothreotol (DTT), 1 mg/ml bovine serum albumin (BSA), 1 mM ATP, 1 mM NAD, and 12 mM glucose, 10 units per ml glucose-6-phosphate dehydrogenase, and +/−300 ng per ml GK. For determination of the affinity (Km) and Vmax, different concentrations of glucose ranging from 0.5 mM to 40 mM were used in the assay; see Grimsby, J., Sarabu, R.; Grippo, J. F.; et. al. Science 2003, 301, 370-373. Production of reduced NAD (Nicotinamide Adenine Dinucleotide) was measured as changes in absorption at 340 nm in 96-well plate reader (Envision model # 2101 Multilabel Plate reader). % Activation @ 50 μM was calculated as the percentage increase in GK activity above the vehicle control with the effective concentration of the compound being 50 μM. EC50% (μM) was calculated as the effective concentration of the compound that produces 50% activation above the vehicle control, and EC100% (μM) was calculated as the effective concentration of the compound that produces 100% activation above the vehicle control.

[1] = compound 50 μM, percentage increase in GK activity above vehicle control, 12 mM glucose

EC50 | EC100% | activation at 50 µM [1] | % Activation @ 50 μM [1] | SMILES
5 µM | 19.4 µM |  |  | O=C(CSC1c2ccccc2C(=O)N1Cc1cccs1)Nc1nccs1 (centres unmarked) [Compound 14, 2-(3-Oxo-2-thiophen-2-ylmethyl-2,3-dihydro-1H-isoindol-1-ylsulfanyl)-N-thiazol-2-yl-acetamide]
 |  | 13% |  | O=C(CSC1c2ccccc2C(=O)N1Cc1cccs1)Nc1ncccn1 (centres unmarked) [Compound 16, 2-(3-Oxo-2-thiophen-2-ylmethyl-2,3-dihydro-1H-isoindol-1-ylsulfanyl)-N-pyrimidin-2-yl-acetamide]
3.2 µM |  | 146% |  | O=C(CSC1c2ccccc2C(=O)N1Cc1ccccc1)Nc1ccc(C(=O)O)cn1 (centres unmarked) [Compound 19, 6-[2-(2-Benzyl-3-oxo-2,3-dihydro-1H-isoindol-1-ylsulfanyl)-acetyamino]-nicotinic acid]
1.76 µM | 8.71 µM | 164% |  | O=C(COC1c2ccccc2C(=O)N1Cc1ccccc1)Nc1ccccn1 (centres unmarked) [Compound 23, 2-(2-Benzyl-3-oxo-2,3-dihydro-1H-isoindol-1-yloxy)-N-pyridin-2-yl-acetamide]
1.8 µM and 0.9 µM | 4.5 µM and 2.6 µM |  | 228% | O=C(CNC1c2ccccc2C(=O)N1Cc1ccccc1)Nc1ccccn1 (centres unmarked) [Compound 27, 2-(2-Benzyl-3-oxo-2,3-dihydro-1H-isoindol-1-ylamine)-N-pyridin-2-yl-acetamide]
11.3 µM |  | 73% |  | O=C(COC1c2ccccc2C(=O)N1Cc1ccccc1)Nc1nccs1 (centres unmarked) [Compound 28, 2-(2-Benzyl-3-oxo-2,3-dihydro-1H-isoindol-1-yloxy)-N-thiazol-2-yl-acetamide]
4.4 µM | 17.6 µM | 156% |  | COc1ccc(CN2C(=O)c3ccccc3C2SCC(=O)Nc2nccs2)cc1 (centres unmarked) [Compound 29, 2-[2-(4-Methoxybenzyl)-3-oxo-2,3-dihydro-1H-isoindol-1-ylsulfanyl]-N-thiazol-2-yl-acetamide]
9.5 µM |  | 102% |  | O=C(CSC1c2ccccc2C(=O)N1Cc1ccc(Cl)cc1)Nc1nccs1 (centres unmarked) [Compound 30, 2-[2-(4-Chlorobenzyl)-3-oxo-2,3-dihydro-1H-isoindol-1-ylsulfanyl]-N-thiazol-2-yl-acetamide]
4 µM | 12 µM | 199% |  | O=C(CSC1c2ccccc2C(=O)N1Cc1cccs1)Nc1cnccn1 (centres unmarked) [Compound 31, 2-(3-Oxo-2-thiophen-2-ylmethyl-2,3-dihydro-1H-isoindol-1-ylsulfanyl)-N-pyrazin-2-yl-acetamide]
9.2 µM |  | 113% |  | O=C(CSC1c2ccccc2C(=O)N1Cc1ccco1)Nc1nccs1 (centres unmarked) [Compound 32, 2-(2-Furan-2-ylmethyl-3-oxo-2,3-dihydro-1H-isoindol-1-ylsulfanyl)-N-thiazol-2-yl-acetamide]
2.6 µM |  | 229% |  | CN(C)c1ccc(CN2C(=O)c3ccccc3C2SCC(=O)Nc2nccs2)cc1 (centres unmarked) [Compound 33, 2-[2-(4-Dimethylaminobenzyl)-3-oxo-2,3-dihydro-1H-isoindol-1-ylsulfanyl]-N-thiazol-2-yl-acetamide]
1 µM | 4.1 µM | 180% |  | COC(=O)c1ccc(NC(=O)CSC2c3ccccc3C(=O)N2Cc2cccs2)nc1 (centres unmarked) [Compound 34, 6-[2-(3-Oxo-2-thiophen-2-ylmethyl-2,3-dihydro-1H-isoindol-1-ylsulfanyl)-acetylamino]-nicotinic acid methyl ester]
 | 2.9 µM and 3.0 µM | 171% |  | COC(=O)c1ccc(NC(=O)CSC2c3ccccc3C(=O)N2Cc2ccccc2)nc1 (centres unmarked) [Compound 35, 6-[2-(2-Benzyl-3-oxo-2,3-dihydro-1H-isoindol-1-ylsulfanyl)-acetylamino]-nicotinic acid methyl ester]
9 µM |  | 143% |  | CCOC(=O)Cc1csc(NC(=O)CSC2c3ccccc3C(=O)N2Cc2cccs2)n1 (centres unmarked) [Compound 36, {2-[2-(3-Oxo-2-thiophen-2-ylmethyl-2,3-dihydro-1H-isoindol-1-ylsulfanyl)-acetylamino]-thiazol-4-yl}-acetic acid ethyl ester]
0.57 µM | 1.57 µM | 256% |  | COC(=O)c1ccc(NC(=O)COC2c3ccccc3C(=O)N2Cc2ccccc2)nc1 (centres unmarked) [Compound 37, 6-[2-(2-Benzyl-3-oxo-2,3-dihydro-1H-isoindol-1-yloxy)-acetylamino]-nicotinic acid methyl ester]
